Assay results from ChEMBL document CHEMBL1909046, “DrugMatrix in vitro pharmacology data”.

Columns and labels:
[1] = target: T1, Alpha-2A adrenergic receptor (Homo sapiens, UniProt P08913); format: cell membranes, Sf9, Membrane; details: sf9; also: in other assays of this panel Not Active means under 50% inhibition at 10 µM
T1 sequence (P08913 whole entry): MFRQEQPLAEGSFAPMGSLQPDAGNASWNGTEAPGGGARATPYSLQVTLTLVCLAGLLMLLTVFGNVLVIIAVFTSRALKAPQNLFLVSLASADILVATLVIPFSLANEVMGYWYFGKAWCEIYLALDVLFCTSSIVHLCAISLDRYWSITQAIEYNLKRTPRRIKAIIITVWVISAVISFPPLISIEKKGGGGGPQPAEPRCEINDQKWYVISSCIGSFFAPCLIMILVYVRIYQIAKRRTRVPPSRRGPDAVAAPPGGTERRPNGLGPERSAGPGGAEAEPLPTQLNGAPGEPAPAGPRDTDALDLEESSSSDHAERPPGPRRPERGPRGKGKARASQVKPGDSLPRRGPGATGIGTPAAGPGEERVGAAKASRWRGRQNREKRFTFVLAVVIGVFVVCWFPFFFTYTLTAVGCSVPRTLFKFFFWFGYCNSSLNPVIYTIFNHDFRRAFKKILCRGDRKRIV

Histamine H2 receptor = Histamine H2 receptor (Homo sapiens, UniProt P25021); format: cell membranes, CHO-K1, Membrane; details: cho-k1; also: in other assays of this panel Not Active means under 50% inhibition at 10 µM
Chain of Histamine H2 receptor (P25021 whole entry): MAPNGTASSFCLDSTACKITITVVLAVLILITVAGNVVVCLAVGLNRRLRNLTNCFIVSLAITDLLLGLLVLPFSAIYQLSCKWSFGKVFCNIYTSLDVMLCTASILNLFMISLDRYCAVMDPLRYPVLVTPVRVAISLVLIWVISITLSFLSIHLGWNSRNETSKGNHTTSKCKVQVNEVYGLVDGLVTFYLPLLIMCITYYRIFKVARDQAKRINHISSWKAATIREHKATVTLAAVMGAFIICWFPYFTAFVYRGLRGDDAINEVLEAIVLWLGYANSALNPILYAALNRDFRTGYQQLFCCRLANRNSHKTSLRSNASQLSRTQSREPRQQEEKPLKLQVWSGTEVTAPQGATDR

[2] = target: T2, 3-hydroxy-3-methylglutaryl-coenzyme A reductase (Homo sapiens, UniProt P04035); parameters: species or system Escherichia coli;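 also: enzyme inhibition assay of HMG-CoA reductase using radiolabeled [14C]HMG-CoA as substrate; in other assays of this panel Not Active means under 50% inhibition at 10 µM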
T2 sequence (P04035 whole entry): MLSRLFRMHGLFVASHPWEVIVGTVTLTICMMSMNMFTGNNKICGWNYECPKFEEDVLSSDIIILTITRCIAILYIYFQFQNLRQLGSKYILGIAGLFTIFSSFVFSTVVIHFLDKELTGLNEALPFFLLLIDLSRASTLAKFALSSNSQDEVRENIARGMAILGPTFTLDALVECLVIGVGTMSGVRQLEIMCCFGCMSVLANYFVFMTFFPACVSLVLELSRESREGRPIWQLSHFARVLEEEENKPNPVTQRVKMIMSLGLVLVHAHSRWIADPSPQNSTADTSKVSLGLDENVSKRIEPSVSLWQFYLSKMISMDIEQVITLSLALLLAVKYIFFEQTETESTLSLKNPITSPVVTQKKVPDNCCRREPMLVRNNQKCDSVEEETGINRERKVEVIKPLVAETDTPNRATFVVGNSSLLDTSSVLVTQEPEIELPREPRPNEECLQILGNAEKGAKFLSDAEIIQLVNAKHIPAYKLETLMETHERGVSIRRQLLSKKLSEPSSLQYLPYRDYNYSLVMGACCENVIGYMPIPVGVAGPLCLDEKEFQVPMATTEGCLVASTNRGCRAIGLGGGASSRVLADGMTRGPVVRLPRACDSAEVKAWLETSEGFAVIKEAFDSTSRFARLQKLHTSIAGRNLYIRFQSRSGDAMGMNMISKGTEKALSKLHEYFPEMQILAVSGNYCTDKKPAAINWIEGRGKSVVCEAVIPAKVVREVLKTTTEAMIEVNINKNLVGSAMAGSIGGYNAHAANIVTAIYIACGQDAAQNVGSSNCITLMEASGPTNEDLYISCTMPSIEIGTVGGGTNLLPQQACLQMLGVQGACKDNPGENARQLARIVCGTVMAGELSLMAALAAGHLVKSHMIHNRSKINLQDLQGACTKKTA

[3] = target: T3, Amine oxidase [flavin-containing] A (Homo sapiens, UniProt P21397); assay: DRUGMATRIX: Monoamine Oxidase MAO-A enzyme inhibition (substrate: Kynuramine); parameters: species or system BTI-TN-5B1-4; details: bti-tn-5b1-4; Not Active = under 50% inhibition at 10 µM
T3 sequence (P21397 whole entry): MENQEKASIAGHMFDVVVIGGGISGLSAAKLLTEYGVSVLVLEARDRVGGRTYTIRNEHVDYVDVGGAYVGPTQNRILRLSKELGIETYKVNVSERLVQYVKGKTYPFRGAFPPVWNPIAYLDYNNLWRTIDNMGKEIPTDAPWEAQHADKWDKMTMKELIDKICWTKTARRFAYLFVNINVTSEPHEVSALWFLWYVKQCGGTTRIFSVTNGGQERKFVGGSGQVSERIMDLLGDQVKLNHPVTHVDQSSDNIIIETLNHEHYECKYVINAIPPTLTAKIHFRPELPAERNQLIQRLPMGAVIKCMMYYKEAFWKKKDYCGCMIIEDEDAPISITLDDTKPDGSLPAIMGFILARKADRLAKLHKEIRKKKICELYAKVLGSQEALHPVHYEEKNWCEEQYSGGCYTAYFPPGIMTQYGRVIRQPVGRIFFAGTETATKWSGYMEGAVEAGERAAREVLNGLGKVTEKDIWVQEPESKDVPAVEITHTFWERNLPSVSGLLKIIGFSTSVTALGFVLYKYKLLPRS

Acetylcholinesterase = Acetylcholinesterase (Homo sapiens, UniProt P22303); assay: DRUGMATRIX: Acetylcholinesterase enzyme inhibition (substrate: acetylthiocholine); format: cell-based, HEK293; details: hek293; Not Active = under 50% inhibition at 10 µM
Chain of Acetylcholinesterase (P22303 whole entry): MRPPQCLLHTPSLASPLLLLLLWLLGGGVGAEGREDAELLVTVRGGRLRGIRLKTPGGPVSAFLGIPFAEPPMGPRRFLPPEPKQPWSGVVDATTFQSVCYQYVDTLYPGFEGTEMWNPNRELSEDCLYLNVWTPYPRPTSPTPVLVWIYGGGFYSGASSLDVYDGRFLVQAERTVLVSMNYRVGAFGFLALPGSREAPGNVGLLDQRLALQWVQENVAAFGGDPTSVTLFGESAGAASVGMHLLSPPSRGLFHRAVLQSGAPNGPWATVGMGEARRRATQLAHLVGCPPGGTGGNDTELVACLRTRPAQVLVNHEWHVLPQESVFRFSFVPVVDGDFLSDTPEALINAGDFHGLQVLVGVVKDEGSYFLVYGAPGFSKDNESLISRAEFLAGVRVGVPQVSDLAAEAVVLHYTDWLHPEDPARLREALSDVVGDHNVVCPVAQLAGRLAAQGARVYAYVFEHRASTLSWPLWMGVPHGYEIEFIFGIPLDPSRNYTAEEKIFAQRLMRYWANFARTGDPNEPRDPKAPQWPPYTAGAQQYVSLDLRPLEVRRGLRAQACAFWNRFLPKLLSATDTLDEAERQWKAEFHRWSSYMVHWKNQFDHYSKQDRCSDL

Cytochrome P450 2A6 = target: T4, Cytochrome P450 2A6 (Homo sapiens, UniProt P11509); details: bti-tn-5b1-4; also: in other assays of this panel Not Active means under 50% inhibition at 10 µM
T4 sequence (P11509 whole entry): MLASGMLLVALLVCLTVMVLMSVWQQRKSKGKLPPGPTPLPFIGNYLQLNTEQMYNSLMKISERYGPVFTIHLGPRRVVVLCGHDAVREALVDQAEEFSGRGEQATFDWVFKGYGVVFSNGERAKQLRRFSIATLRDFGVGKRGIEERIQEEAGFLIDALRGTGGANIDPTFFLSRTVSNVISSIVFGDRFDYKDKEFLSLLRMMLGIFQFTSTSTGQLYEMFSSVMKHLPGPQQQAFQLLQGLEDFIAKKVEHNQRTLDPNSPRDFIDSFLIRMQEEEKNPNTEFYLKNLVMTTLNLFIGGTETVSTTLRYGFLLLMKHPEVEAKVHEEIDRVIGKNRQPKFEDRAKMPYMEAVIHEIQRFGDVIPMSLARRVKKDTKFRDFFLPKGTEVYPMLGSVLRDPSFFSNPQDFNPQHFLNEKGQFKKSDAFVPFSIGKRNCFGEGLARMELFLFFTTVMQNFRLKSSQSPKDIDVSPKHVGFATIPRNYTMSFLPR

CN1C(=O)CN=C(c2ccccc2)c2cc(Cl)ccc21 [DIAZEPAM]
Not Active: IC50 [1] | IC50 (Histamine H2 receptor) | IC50 [2] | IC50 [3] | IC50 (Acetylcholinesterase) | IC50 (Cytochrome P450 2A6) | Ki (Cytochrome P450 2A6)

Cc1c(N(C)CS(=O)(=O)[O-])c(=O)n(-c2ccccc2)n1C.[Na+] [DIPYRONE SODIUM]
Not Active: IC50 [1] | IC50 (Histamine H2 receptor) | IC50 [2] | IC50 [3] | IC50 (Acetylcholinesterase) | IC50 (Cytochrome P450 2A6) | Ki (Cytochrome P450 2A6)

CC(CCc1ccc(O)cc1)NCCc1ccc(O)c(O)c1 (configuration not stated) [DOBUTAMINE]
Not Active: IC50 [1] | IC50 (Histamine H2 receptor) | IC50 [2] | IC50 [3] | IC50 (Acetylcholinesterase) | IC50 (Cytochrome P450 2A6) | Ki (Cytochrome P450 2A6)

CCn1cc(C(=O)O)c(=O)c2cc(F)c(N3CCNCC3)nc21 [ENOXACIN]
Not Active: IC50 [1] | IC50 (Histamine H2 receptor) | IC50 [2] | IC50 [3] | IC50 (Acetylcholinesterase) | IC50 (Cytochrome P450 2A6) | Ki (Cytochrome P450 2A6)

CCC(=O)O[C@H]1[C@H](O[C@@H]2[C@@H](C)[C@H](O[C@H]3C[C@@](C)(OC)[C@@H](O)[C@H](C)O3)[C@@H](C)C(=O)O[C@H](CC)[C@@](C)(O)[C@H](O)[C@@H](C)C(=O)[C@H](C)C[C@@]2(C)O)O[C@H](C)C[C@@H]1N(C)C [ERYTHROMYCIN PROPIONATE]
Not Active: IC50 [1] | IC50 (Histamine H2 receptor) | IC50 [2] | IC50 [3] | IC50 (Acetylcholinesterase) | IC50 (Cytochrome P450 2A6) | Ki (Cytochrome P450 2A6)

C=C(CC)C(=O)c1ccc(OCC(=O)O)c(Cl)c1Cl [ETHACRYNIC ACID]
Not Active: IC50 [1] | IC50 (Histamine H2 receptor) | IC50 [2] | IC50 [3] | IC50 (Acetylcholinesterase) | IC50 (Cytochrome P450 2A6) | Ki (Cytochrome P450 2A6)

C#C[C@]1(O)CC[C@H]2[C@@H]3CCc4cc(O)ccc4[C@H]3CC[C@@]21C [ETHINYL ESTRADIOL]
Not Active: IC50 [1] | IC50 (Histamine H2 receptor) | IC50 [2] | IC50 [3] | IC50 (Acetylcholinesterase) | IC50 (Cytochrome P450 2A6) | Ki (Cytochrome P450 2A6)

OCCO [ETHYLENE GLYCOL]
Not Active: IC50 [1] | IC50 (Histamine H2 receptor) | IC50 [2] | IC50 [3] | IC50 (Acetylcholinesterase) | IC50 (Cytochrome P450 2A6) | Ki (Cytochrome P450 2A6)

CC(=O)OCC(CCn1cnc2cnc(N)nc21)COC(C)=O [FAMCICLOVIR]
Not Active: IC50 [1] | IC50 (Histamine H2 receptor) | IC50 [2] | IC50 [3] | IC50 (Acetylcholinesterase) | IC50 (Cytochrome P450 2A6) | Ki (Cytochrome P450 2A6)

O=C(O)Cc1ccc(-c2ccccc2)cc1 [FELBINAC]
Not Active: IC50 [1] | IC50 (Histamine H2 receptor) | IC50 [2] | IC50 [3] | IC50 (Acetylcholinesterase) | IC50 (Cytochrome P450 2A6) | Ki (Cytochrome P450 2A6)

CCOC(=O)C1=C(C)NC(C)=C(C(=O)OC)C1c1cccc(Cl)c1Cl (configuration not stated) [FELODIPINE]
Not Active: IC50 [1] | IC50 (Histamine H2 receptor) | IC50 [2] | IC50 [3] | IC50 (Acetylcholinesterase) | IC50 (Cytochrome P450 2A6) | Ki (Cytochrome P450 2A6)

CC(C(=O)O)c1ccc(-c2ccccc2)c(F)c1 (configuration not stated) [FLURBIPROFEN]
Not Active: IC50 [1] | IC50 (Histamine H2 receptor) | IC50 [2] | IC50 [3] | IC50 (Acetylcholinesterase) | IC50 (Cytochrome P450 2A6) | Ki (Cytochrome P450 2A6)

NC[C@@H]1O[C@H](O[C@H]2[C@@H](O)[C@H](O[C@@H]3[C@@H](O)[C@H](N)C[C@H](N)[C@H]3O[C@H]3O[C@H](CN)[C@@H](O)[C@H](O)[C@H]3N)O[C@@H]2CO)[C@H](N)[C@@H](O)[C@@H]1O [FRAMYCETIN]
Not Active: IC50 [1] | IC50 (Histamine H2 receptor) | IC50 [2] | IC50 [3] | IC50 (Acetylcholinesterase) | IC50 (Cytochrome P450 2A6) | Ki (Cytochrome P450 2A6)

C[C@H]([C@](O)(Cn1cncn1)c1ccc(F)cc1F)S(C)(=O)=O [GENACONAZOLE]
Not Active: IC50 [1] | IC50 (Histamine H2 receptor) | IC50 [2] | IC50 [3] | IC50 (Acetylcholinesterase) | IC50 (Cytochrome P450 2A6) | Ki (Cytochrome P450 2A6)

Cc1c(F)c(N2CCNC(C)C2)cc2c1c(=O)c(C(=O)O)cn2C1CC1 (configuration not stated) [GREPAFLOXACIN]
Not Active: IC50 [1] | IC50 (Histamine H2 receptor) | IC50 [2] | IC50 [3] | IC50 (Acetylcholinesterase) | IC50 (Cytochrome P450 2A6) | Ki (Cytochrome P450 2A6)

C[C@]12CCC(=O)C=C1CC[C@@H]1[C@@H]2[C@@H](O)C[C@@]2(C)[C@H]1CC[C@]2(O)C(=O)CO [HYDROCORTISONE]
Not Active: IC50 [1] | IC50 (Histamine H2 receptor) | IC50 [2] | IC50 [3] | IC50 (Acetylcholinesterase) | IC50 (Cytochrome P450 2A6) | Ki (Cytochrome P450 2A6)

NC[C@H]1O[C@H](O[C@H]2[C@H](O)[C@@H](O[C@H]3O[C@H](CO)[C@@H](O)[C@H](N)[C@H]3O)[C@H](N)C[C@@H]2N)[C@H](O)[C@@H](O)[C@@H]1O [KANAMYCIN]
Not Active: IC50 [1] | IC50 (Histamine H2 receptor) | IC50 [2] | IC50 [3] | IC50 (Acetylcholinesterase) | IC50 (Cytochrome P450 2A6) | Ki (Cytochrome P450 2A6)

CC(C(=O)O)c1ccc(CC2CCCC2=O)cc1 (configuration not stated) [LOXOPROFEN]
Not Active: IC50 [1] | IC50 (Histamine H2 receptor) | IC50 [2] | IC50 [3] | IC50 (Acetylcholinesterase) | IC50 (Cytochrome P450 2A6) | Ki (Cytochrome P450 2A6)

Cc1cccc(Nc2ccccc2C(=O)O)c1C [MEFENAMIC ACID]
Not Active: IC50 [1] | IC50 (Histamine H2 receptor) | IC50 [2] | IC50 [3] | IC50 (Acetylcholinesterase) | IC50 (Cytochrome P450 2A6) | Ki (Cytochrome P450 2A6)

CC(=O)O[C@]1(C(C)=O)CC[C@H]2[C@@H]3C=C(C)C4=CC(=O)CC[C@]4(C)[C@H]3CC[C@@]21C [MEGESTROL ACETATE]
Not Active: IC50 [1] | IC50 (Histamine H2 receptor) | IC50 [2] | IC50 [3] | IC50 (Acetylcholinesterase) | IC50 (Cytochrome P450 2A6) | Ki (Cytochrome P450 2A6)

COc1ccccc1OCC(O)COC(N)=O (configuration not stated) [METHOCARBAMOL]
Not Active: IC50 [1] | IC50 (Histamine H2 receptor) | IC50 [2] | IC50 [3] | IC50 (Acetylcholinesterase) | IC50 (Cytochrome P450 2A6) | Ki (Cytochrome P450 2A6)
